The text below walks through data of ChEMBL document CHEMBL1147871, “Synthesis and antioxidant activity of new homocarnosine beta-cyclodextrin conjugates” (Eur J Med Chem, 2007).

Format in all cases: functional
Assay [1] in a line: Effect on copper-induced human LDL peroxidation assessed as inhibition of malonaldehyde production at 200 uM after 4 hrs. Details: scale not given: the % may be the effect or the level left.
A short description of assay [2]: Protective effect on copper-induced LDL oxidation at 8:1 copper to drug ratio relative to 40 uM copper.
Assay [3] in a line: Effect on copper-induced human LDL peroxidation assessed as inhibition of malonaldehyde production at 10 uM after 4 hrs. Set-up: scale not given: the % may be the effect or the level left.
Assay [4] can be described thus: Protective effect on copper-induced LDL oxidation at 1:2.5 copper to drug ratio relative to 40 uM copper.
Assay [5] in a line: Effect on copper-induced human LDL peroxidation assessed as inhibition of malonaldehyde production at 50 uM after 4 hrs. Details: scale not given: the % may be the effect or the level left.
Assay [6] is described as follows: Effect on copper-induced human LDL peroxidation assessed as inhibition of malonaldehyde production at 2 uM after 4 hrs. Set-up: scale not given: the % may be the effect or the level left.
Assay [7] is described as follows: Protective effect on copper-induced LDL oxidation at 20:1 copper to drug ratio relative to 40 uM copper.
Assay [8] is described as follows: Protective effect on copper-induced LDL oxidation at 1:5 copper to drug ratio relative to 40 uM copper.
Assay [9] in a line: Effect on copper-induced human LDL peroxidation assessed as inhibition of malonaldehyde production at 5 uM after 4 hrs. Set-up: scale not given: the % may be the effect or the level left.
Assay [10] is described as follows: Protective effect on copper-induced LDL oxidation at 4:1 copper to drug ratio relative to 40 uM copper.
The nature of assay [11]: Effect on copper-induced human LDL peroxidation assessed as inhibition of malonaldehyde production at 20 uM after 4 hrs. Details: scale not given: the % may be the effect or the level left.
The nature of assay [12]: Protective effect on copper-induced LDL oxidation at 1:1.25 copper to drug ratio relative to 40 uM copper.
Assay [13] can be described thus: Effect on copper-induced human LDL peroxidation assessed as inhibition of malonaldehyde production at 100 uM after 4 hrs. Set-up: scale not given: the % may be the effect or the level left.
The nature of assay [14]: Protective effect on copper-induced LDL oxidation at 2:1 copper to drug ratio relative to 40 uM copper.

As to `NCCC(=O)N[C@@H](Cc1c[nH]cn1)C(=O)O`, the Activity in assay [1] came to 22.5%; in assay [2], 1%; in [3] it was 1.38%; in [4], 15%; in [5], 9.13%; in assay [6] it was 0.28%. The Activity in assay [7] is 0%; in [8], 22%; in assay [9], 0.93%; in [10] it was 1%; in assay [11] it was 2.72%; in assay [12], 9%. In addition, the Activity amounted to 15.1% in assay [13] and 3% in assay [14].
On to `OC[C@H]1O[C@@H]2O[C@H]3[C@H](O)[C@@H](O)[C@@H](O[C@H]4[C@H](O)[C@@H](O)[C@@H](O[C@H]5[C@H](O)[C@@H](O)[C@@H](O[C@H]6[C@H](O)[C@@H](O)[C@@H](O[C@H]7[C@H](O)[C@@H](O)[C@@H](O[C@H]8[C@H](O)[C@@H](O)[C@@H](O[C@H]1[C@H](O)[C@H]2O)O[C@@H]8CO)O[C@@H]7CO)O[C@@H]6CO)O[C@@H]5CO)O[C@@H]4CO)O[C@@H]3CO`, for which the Activity in [1] worked out at 10.7%; in [3] it was 0.65%; in [5], 3.87%; in assay [6] it was 0.11%; in assay [9], 0.38%; in assay [11], 1.26%. In assay [13], the Activity turned out to be 6.94%.
Regarding `NCCCC(=O)N[C@@H](Cc1cnc[nH]1)C(=O)O`, the Activity worked out at 17.6% in assay [1]; 1% in assay [2]; 1.86% in assay [3]; 12% in [4]; 8.28% in [5]; 0.31% in [6]. Besides, the Activity in [7] was 0%; in assay [8], 18%; in assay [9], 1.02%; in assay [10], 2%; in [11], 2.5%; in assay [12], 8%. For the same compound, the Activity in [13] is 12.1%; in assay [14] it was 3%.
